Experimental data as given in patent EP0097633B1, “Determination of the sensitivity of virus to antiviral agents” (Wahren, Britta, priority 1982, dated 1984).
Like-named read-outs stand apart in the source and are kept apart here.

Assays:
HSV = test: Virus sensitivity assay (VSA): HSV patient material replicated in HL-cells with antiviral agent, cell disruption, virus antigen by ELISA sandwich technique (Example 1); type: cell-based, herpes simplex virus (HSV); conditions: for absorbance (A) at 405 nm: disrupted cells, culture of 1 to 3 days; for sensitivity of the investigated HSV to the antiviral agent: read from Fig. 1
Protocol: A material from a patient containing living HSV is mixed with a small amount of Eagle's tissue culture medium containing 2% of calf serum, 100 IE penicillin/ml and 100 […] of streptomycin/ml, after which the virus mixture is diluted 1:30 in this medium.
(§1) Sterile plastic plates comprising 24 wells, each having a culture surface of 2.5 cm^2 and containing about 5 x 10^5 HL-cells/well were inoculated with 0.1 ml of virus dilutions as above. Such of the above virus dilutions only containing a small amount of virus are first cultured for 3 days in HL-cells, on which virus replicates, after which the virus isolate from one cell passage is taken out, is diluted 1:30 and 0.1 ml of the dilutions is added to the plates as indicated above. The cells are then incubated at a temperature of 32-37°C, with addition of different antiviral agents, and without any addition of antiviral agent to obtain reference values. Each antiviral agent is added in a dilution series comprising six different concentrations (Cl-C6), some of which correspond to desired serum concentrations for the treatment of patients. In table 1 is indicated the antiviral agents and concentrations thereof used.
As a background control of virus replication taking place and for a direct typing of virus 2 cell containing wells/plate are inoculated with a mixture of 0.1 ml virus dilution and 0.05 ml of Brij-58 of 1%.
After a culture of 1 to 3 days the effect of the antiviral agents is then evaluated by measurement with ELISA sandwich technique as described below. However, the cells are treated in the following way before this measurement.
(§2) The supernatant is sucked off and in order to achieve cell disrupture 800 µl of distilled water are added to the cells on the plates. The plates are frozen at -20°C and after some time sufficient for formation of ice crystals (about 15 min) the plates are thawed to room temperature for measurement of virus antigen. If desired, the plates can be preserved in a frozen state for a long time before they are thawed in order to carry out the measurement of virus antigen. When the plates have thawed 200 µl of NaCI of 4.5% are added to the cells in order to obtain an isotonic solution.
(§3) The amount of virus antigen formed is thereafter determined as follows. Guinea pig anti-HSV-serum is diluted in 0.1-M sodium carbonate buffer. 0.1 ml of the serum dilution is filled per well in microplates (M 29 AR, Dynatech, Zug, Switzerland) which have been washed three times with NaCI-solution of 0.9% containing 0.05% of Tween® 20, after which the plates are incubated for 16 hours at room temperature. The plates can be preserved sealed with their contents at +4°C up to 2-3 months. The optimal antibody concentration has been determined by antibody titration with the respective antigen and control antigen.
0.1 ml of the cell material obtained above or a known virus antigen is filled into plates treated with antibody and is incubated for 4 hours at +4°C. After washing with the washing solution indicated above 0.1 ml of rabbit anti-HSV is added and the plates are incubated for 2 hours at +37°C. The plates are washed and 0.1 ml of conjugate is added, after which they are incubated for 2 hours at +37°C. The conjugate consists of pig anti-rabbit IgG conjugated with alkaline phosphatase (Orion Diagnostica, Helsinki, Finland) in a dilution of 1:100. Non-bonded conjugate is washed off before 100 pl of the substrate p-nitrophenyl phosphate (1 mg/ml, Sigma, St Louis, MO, USA) are added. For dilution of the substrate 1 M diethanol buffer, pH 9.8 containing 0.5 x 10-^3 M MgC12 is used and for dilution of antisera and conjugate phosphate buffer (PBS), pH 7.3-7.4 with 0.5% of Tween® 20, 0.5% of BSA (bovine serum albumin) and 0.02% of NaN3 is used. The reaction is stopped after 20-60 min with 0.025 ml of 5 M NaOH. The absorbance (A) is thereafter read at 405 nm with Titertek Multiskan® (Flow Laboratories, Irvine, Scotland). […]

[1] = tested on: virus isolate from an eye IDU treated with without result; test: VSA on a virus isolate from an eye treated with IDU without result (Example 3); type: cell-based
Protocol: as §1, §2
as §3, with “months.” for “months. The optimal antibody concentration has been determined by antibody titration with the respective antigen and control antigen.”
(§4) 0.1 ml of the cell material obtained above or a known virus antigen is filled into plates treated with antibody and is incubated for 4 hours at +4°C. After washing with the washing solution indicated above 0.1 ml of rabbit anti-HSV is added and the plates are incubated for 2 hours at +37°C. The plates are washed and 0.1 ml of conjugate is added, after which they are incubated for 2 hours at +37°C. The conjugate consists of pig anti-rabbit IgG conjugated with alkaline phosphatase (Orion Diagnostica, Helsinki, Finland) in a dilution of 1:100. Non-bonded conjugate is washed off before 100 pl of the substrate p-nitrophenyl phosphate (1 mg/ml, Sigma, St Louis, MO, USA) are added. For dilution of the substrate 1 M diethanol buffer, pH 9.8 containing 0.5 x 10-^3 M MgC12 is used and for dilution of antisera and conjugate phosphate buffer (PBS), pH 7.3-7.4 with 0.5% of Tween® 20, 0.5% of BSA (bovine serum albumin) and 0.02% of NaN3 is used. The reaction is stopped after 20-60 min with 0.025 ml of 5 M NaOH. The absorbance (A) is thereafter read at 405 nm with Titertek Multiskan® (Flow Laboratories, Irvine, Scotland).

HSV-1 = test: VSA on HL-cells infected with HSV-1, virus antigen measured in supernatant and in cells disrupted with distilled water (Example 2); type: cell-based; conditions: for Absorbance values at 405 nm: 3 days
Protocol: as §1, §2, §3
as §4, with “Scotland). Absorbance values then obtained at the concentrations C1―C6 of the antiviral agents from table 1 and at the concentration Co = O are indicated in the following table 2.” for “Scotland).”
HL-cells infected with HSV-1 were incubated in the same way as in example 1 in the presence of Ara-A and IDU in the concentrations indicated in table 1 for 3 days. Reference culture without addition of antiviral agent was also carried out. The virus antigen in the supernatant (---) and in cells disrupted with distilled water (-) was thereafter measured in the same way as in example 1, and the results are found in table 3 and Fig. 2.

[2] = cited from earlier work
[3] = C1: Ara-A 5, ACV 0.15, PFA 25, IDU 0.5 μM, C0 (no agent) 1.425
[4] = C2: Ara-A 10, ACV 0.31, PFA 50, IDU 1 μM, C0 1.425
[5] = C3: Ara-A 20, ACV 0.63, PFA 100, IDU 2 μM, C0 1.425
[6] = C4: Ara-A 40, ACV 1.25, PFA 200, IDU 4 μM, C0 1.425
[7] = C5: Ara-A 80, ACV 2.5, PFA 400, IDU 8 μM, C0 1.425
[8] = C6: Ara-A 160, ACV 5, PFA 800, IDU 16 μM, C0 1.425
[9] = C1: Ara-A 5, ACV 0.15, PFA 25, IDU 0.5 μM, C0 (no agent) 1.605
[10] = C2: Ara-A 10, ACV 0.31, PFA 50, IDU 1 μM, C0 1.605
[11] = C3: Ara-A 20, ACV 0.63, PFA 100, IDU 2 μM, C0 1.605
[12] = C4: Ara-A 40, ACV 1.25, PFA 200, IDU 4 μM, C0 1.605
[13] = C5: Ara-A 80, ACV 2.5, PFA 400, IDU 8 μM, C0 1.605
[14] = C6: Ara-A 160, ACV 5, PFA 800, IDU 16 μM, C0 1.605
[15] = cells disrupted with distilled water, C1: Ara-A 5, IDU 0.5 μM
[16] = cells disrupted with distilled water, C2: Ara-A 10, IDU 1 μM
[17] = cells disrupted with distilled water, C3: Ara-A 20, IDU 2 μM
[18] = cells disrupted with distilled water, C4: Ara-A 40, IDU 4 μM
[19] = cells disrupted with distilled water, C5: Ara-A 80, IDU 8 μM
[20] = cells disrupted with distilled water, C6: Ara-A 160, IDU 16 μM
[21] = supernatant, C1: Ara-A 5, IDU 0.5 μM
[22] = supernatant, C2: Ara-A 10, IDU 1 μM
[23] = supernatant, C3: Ara-A 20, IDU 2 μM
[24] = supernatant, C4: Ara-A 40, IDU 4 μM
[25] = supernatant, C5: Ara-A 80, IDU 8 μM
[26] = supernatant, C6: Ara-A 160, IDU 16 μM

| Compound | absorbance (A) at 405 nm (HSV; [3]) | absorbance (A) at 405 nm (HSV; [4]) | absorbance (A) at 405 nm (HSV; [5]) | absorbance (A) at 405 nm (HSV; [6]) | absorbance (A) at 405 nm (HSV; [7]) | absorbance (A) at 405 nm (HSV; [8]) | sensitivity of the investigated HSV to the antiviral agent (HSV) | adsorbance values [1, 9] | adsorbance values [1, 10] | adsorbance values [1, 11] | adsorbance values [1, 12] | adsorbance values [1, 13] | adsorbance values [1, 14] | Absorbance values at 405 nm (HSV-1; [15]) | Absorbance values at 405 nm (HSV-1; [16]) | Absorbance values at 405 nm (HSV-1; [17]) | Absorbance values at 405 nm (HSV-1; [18]) | Absorbance values at 405 nm (HSV-1; [19]) | Absorbance values at 405 nm (HSV-1; [20]) | Absorbance values at 405 nm (HSV-1; [21]) | other results |
| --- | --- | --- | --- | --- | --- | --- | --- | --- | --- | --- | --- | --- | --- | --- | --- | --- | --- | --- | --- | --- | --- |
| Nc1nc2c(ncn2COCCO)c(=O)[nH]1 [ACV, acyclovir] | 1.382 | 1.135 | 0.958 | 0.810 | 0.547 | 0.361 | high sensitivity | 1.608 | 1.615 | 1.594 | 1.179 | 1.475 | 1.415 | – | – | – | – | – | – | – | – |
| Nc1ncnc2c1ncn2C1OC(CO)C(O)C1O (centres unmarked) [Ara-A, adenosine-arabinoside] | 1.505 | 1.132 | 1.017 | 0.892 | 0.520 | 0.473 | – | 1.572 | 1.482 | 0.750 | 0.155 | 0.071 | 0.039 | 1.130 ± 0.052 | 1.073 ± 0.054 | 0.863 ± 0.030 | 0.513 ± 0.025 | 0.142 ± 0.009 | 0.119 | 0.384 ± 0.025 | 50% of inhibition of antigen formation in the cells (HSV-1; read from Fig. 2, disrupted cells): in clinically relevant concentrations; Absorbance values at 405 nm (HSV-1; [22]): 0.323 ± 0.010; Absorbance values at 405 nm (HSV-1; [23]): 0.276 ± 0.006; Absorbance values at 405 nm (HSV-1; [24]): 0.184 ± 0.009; Absorbance values at 405 nm (HSV-1; [25]): 0.099 ± 0.006; Absorbance values at 405 nm (HSV-1; [26]): 0.099 |
| O=c1[nH]c(=O)n([C@H]2C[C@H](O)[C@@H](CO)O2)cc1I [IDU, iododeoxyuridine] | 1.011 | 0.847 | 0.671 | 0.536 | 0.344 | 0.298 | – | 1.207 | 1.165 | 0.951 | 0.739 | 0.706 | 0.502 | 1.130 ± 0.052 | 1.075 ± 0.054 | 0.863 ± 0.030 | 0.513 ± 0.025 | 0.142 ± 0.009 | 0.119 | 0.320 ± 0.037 | Serum concentrations used clinically ([2]; concentrations are measured in lachrymal fluid): 4—400^1 μM or IU/ml; Absorbance values at 405 nm (HSV-1; [22]): 0.259 ± 0.005; Absorbance values at 405 nm (HSV-1; [23]): 0.201 ± 0.025; Absorbance values at 405 nm (HSV-1; [24]): 0.142 ± 0.019; Absorbance values at 405 nm (HSV-1; [25]): 0.091 ± 0.017; Absorbance values at 405 nm (HSV-1; [26]): 0.143 |
| O=C(O)P(=O)(O)O [PFA, phosphonoformic acid] | 1.437 | 1.391 | 1.346 | 1.321 | 0.893 | 0.310 | a lower one | 1.487 | 1.502 | 0.656 | 0.216 | 0.092 | 0.083 | – | – | – | – | – | – | – | Serum concentrations used clinically ([2]; serum, desired concentrations for the treatment of patients): 100 μM or IU/ml |
